Measurements taken from patent US7432045B2 (priority 2003, dated 2008).
Where two headings read alike, the source gives them in different places. Peptide text beside a SMILES is read from it. * marks the point of attachment. code b = biotin-ε-aminohexanoyl, O=C(CCCC[C@@H]1SC[C@@H]2NC(=O)N[C@@H]21)NCCCCCC(=O)*; Biotin = O=C1N[C@H]2[C@H](CS[C@H]2CCCCC(=O)*)N1; Ahx = NCCCCCC(=O)O

Legend:
HSV-1 KOS mutant hrR3 [1] = experiment: LacZ+ virus (hrR3) entry assay with pre-adsorbed virus (entry block); assay type: cell-based
Experimental: LacZ^+ virus (hrR3) entry assay: Confluent Vero cell cultures in 96-well microtiter plates were switched to Hepes-buffered serum-free DMEM, cooled on ice to 4° C. for 30 min, and infected with hrR3 for 1 hour at 4° C. in 40 μL of medium. Unattached virus was removed by rinsing with ice-cold medium. Treatments with antiviral peptide SEQ ID NO:1, referred to as EB, or a control peptide which comprised the RRKK tetra-peptide (SEQ ID NO:16) attached to a scrambled version of the membrane transiting peptide RRKKLAALPLVLAAPLAVLA (SEQ ID NO:17) (referred to as EBX), or mock-treatments with peptide-free medium were carried out in serum-free DMEM as indicated. Virus entry was initiated by transferring cultures to 37° C. To inactivate any remaining extracellular virus, cultures were rinsed with PBS and exposed to low pH citrate buffer (40 mM citric acid, 10 mM KCl, 135 mM NaCl, pH 3.0, according to Highlander et al., J. Virol. 61:3356 (1987), for 1 min at 23° C. The citrate was rinsed off with PBS and cultures were maintained in serum-supplemented DMEM until they were fixed with 0.5% gluteraldehyde in 5×PBS for 30 min at 23° C., stained for β-galactosidase activity for 1 hour or overnight at 23° C. with X-gal (Fisher Biotech; BP1615-1) in 1×PBS containing […], 1.3 mM K4Fe(CN)6, and 1.3 mM K3Fe(CN)6, and scored for the presence of blue […] cells.
In these studies, the hrR3 virus was pre-adsorbed to cells for 1 hour at 4° C. before ice cold 25 μM EB or EBX were added in serum-free DMEM. After an additional 1 hour at 4° C., cultures were shifted to 37° C. to initiate virus entry. At 15 min intervals following the temperature shift, any virus remaining outside the cells was inactivated by washing the cultures with low pH citrate buffer. Cultures were then rinsed and returned to peptide-free serum-supplemented DMEM until they were fixed and stained for β-galactosidase 8 hours after the temperature shift.
(§1) Two assays were used to assess the ability of the TAT peptides to inhibit infection of Vero cells with the hrR3 virus. In both assays, the virus was preadsorbed to cells at 4° C. and entry was initiated in the presence of peptide by shifting the cultures to a permissive temperature (30-37° C.). One hour later, the peptide was rinsed off. The entry blocking activity was measured in half of the cultures, in which any extracellular virus remaining after the peptide treatment was inactivated with low pH citrate buffer. The rest of the cultures were exposed to PBS instead of citrate buffer and used to measure virus inactivation. Virus inactivation depended on persistent effects of the peptide lasting for a period of eight hours. At the end of that period, all cultures were fixed and infected cells were detected by staining with X-gal.
(§2) Virus (m.o.i.=0.025) was preadsorbed to Vero cells for 1 h at 4° C. before cultures were exposed to TAT-C (FIG. 15A), bTAT-9X (FIG. 15B), or n50,51TAT-C (FIGS. 15C, 15D) for 1 h at 33 (FIGS. 15A, 15B), 31 (FIG. 15C), or 37° C. (FIG. 15D). […] Inhibition of entry was measured in the citrate-treated cultures, in which any remaining external virus was inactivated immediately following exposure to peptide (●). Persistent virus inactivation lasting, at least in part, for the 8 h period following exposure to peptide, was measured in the PBS-treated cultures (◯). The IC50s measured in these experiments are included in Table 5.

HSV-1 KOS mutant hrR3 [2] = experiment: Inactivation of pre-adsorbed virus (virus inactivation); assay type: cell-based; details: 33° C.; read-out: Virus Inactivation IC50 (pre-adsorbed virus)
Experimental: as §1, §2

HSV-1 KOS mutant hrR3 [3] = details: read-out: post-entry effects IC50; peptide added after citrate treatment, 8 h
in vitro = details: African green monkey
[4] = tested on: Vero, HeLa, CV-1PD, TM-1, DP-9, CEMx174, NIKS, W12E cells; experiment: MTS assay, eight cell lines; details: eight cell lines
hrR3 = experiment: Virucidal assay; assay type: cell-based, HSV-1
Experimental: […] The treated virus was diluted 200-fold with serum-supplemented DMEM and assayed for infectivity approximately 1 hour later in microtiter wells seeded with Vero cells (3.5×10^4 cells/well) 1 d earlier. Forty or 100 microliter volumes of diluted virus were adsorbed for 1 or 2 h at 37° C. and lacZ^+ cells were scored 8 hours later. In some experiments, aliquots of diluted virus were first dialyzed (Spectra/Por; MWCO 12-14,000) overnight at 4° C. against a 60-fold excess volume of Hepes-buffered serum-supplemented DMEM or forced by syringe through 0.22 μm membranes (Millex-GV; Millipore) before the remaining infectious virus was assayed.

[5] = 33° C., read-out: Entry Block IC50

Row | Compound | IC50 (HSV-1 KOS mutant hrR3 [1]; [5]) [µM] | IC50 (HSV-1 KOS mutant hrR3 [2]) [µM] | IC50 (in vitro) [µM] | also measured
1 | CC(C)C[C@H](NC(=O)CCCCCNC(=O)CCCC[C@@H]1SC[C@@H]2NC(=O)N[C@@H]21)C(=O)N[C@@H](C)C(=O)N[C@H](C(=O)N[C@@H](CC(C)C)C(=O)N[C@@H](C)C(=O)N1CCC[C@H]1C(=O)NCC(=O)N[C@@H](CCCNC(=N)N)C(=O)N[C@@H](CCCCN)C(=O)N[C@@H](CCCCN)C(=O)N[C@@H](CCCNC(=N)N)C(=O)N[C@@H](CCCNC(=N)N)C(=O)N[C@@H](CCC(N)=O)C(=O)N[C@@H](CCCNC(=N)N)C(=O)N[C@@H](CCCNC(=N)N)C(=O)N[C@@H](CCCNC(=N)N)C(=O)N[C@@H](CS)C(N)=O)C(C)C [b6TAT-C, b-LAVLAPGRKKRRQRRRC-amide] ({Biotin-Ahx}-LAVLAPGRKKRRQRRRC-NH2) | 5.3 | 25 | – | IC50 (HSV-1 KOS mutant hrR3 [3]): 190 µM
2 | CC[C@H](C)[C@H](NC(=O)[C@H](CCCCN)NC(=O)[C@@H](NC(=O)[C@H](CCC(N)=O)NC(=O)[C@H](CCCNC(=N)N)NC(=O)CCCCCNC(=O)CCCC[C@@H]1SC[C@@H]2NC(=O)N[C@@H]21)[C@@H](C)CC)C(=O)N[C@@H](Cc1ccccc1)C(=O)N[C@@H](Cc1ccccc1)C(=O)N1CCC[C@H]1C(=O)N[C@@H](CC(N)=O)C(=O)N[C@@H](CCCNC(=N)N)C(=O)N[C@@H](CCCNC(=N)N)C(=O)N[C@@H](CCSC)C(=O)N[C@@H](CCCCN)C(=O)N[C@@H](Cc1ccccc1)C(=O)N[C@@H](CCCCN)C(=O)N[C@@H](CCCCN)C(N)=O [bHOMFF, b - RQIKI F FPNRRMK F KK-amide] ({Biotin-Ahx}-RQIKIFFPNRRMKFKK-NH2) | – | – | > 100 | cytotoxicity to cells (MTS), overall [4]: generally not cytotoxic
3 | CC(C)C[C@H](NC(=O)[C@@H](NC(=O)[C@H](C)NC(=O)[C@H](CC(C)C)NC(=O)[C@@H]1CCCN1C(=O)[C@H](C)NC(=O)[C@H](C)NC(=O)[C@H](CC(C)C)NC(=O)[C@@H](NC(=O)[C@H](CC(C)C)NC(=O)[C@@H]1CCCN1C(=O)[C@H](CC(C)C)NC(=O)[C@H](C)NC(=O)[C@H](C)NC(=O)[C@H](CC(C)C)NC(=O)[C@@H]1CCCN1C(=O)[C@H](CCCNC(=N)N)NC(=O)[C@H](CCCNC(=N)N)NC(=O)[C@H](CCCNC(=N)N)NC(=O)[C@H](CCC(N)=O)NC(=O)[C@H](CCCNC(=N)N)NC(=O)[C@H](CCCNC(=N)N)NC(=O)[C@H](CCCCN)NC(=O)[C@H](CCCCN)NC(=O)[C@H](CCCNC(=N)N)NC(=O)CNC(=O)[C@H](Cc1ccc(O)cc1)NC(=O)CCCCCNC(=O)CCCC[C@@H]1SC[C@@H]2NC(=O)N[C@@H]21)C(C)C)C(C)C)C(=O)N[C@@H](C)C(=O)O [bTAT-17] ({Biotin-Ahx}-YGRKKRRQRRRPLAALPLVLAAPLAVLA-OH) | 2.4 | 6.6 | ~200 | –
4 | b - KLALKLALKALKAALKLA-amide ({code b}-KLALKLALKALKAALKLA-NH2; SMILES CC(C)C[C@H](NC(=O)[C@H](C)NC(=O)[C@H](CCCCN)NC(=O)[C@H](CC(C)C)NC(=O)[C@H](C)NC(=O)[C@H](CC(C)C)NC(=O)[C@H](CCCCN)NC(=O)[C@H](CC(C)C)NC(=O)[C@H](C)NC(=O)[C@H](CC(C)C)NC(=O)[C@H](CCCCN)NC(=O)CCCCCNC(=O)CCCC[C@@H]1SC[C@@H]2NC(=O)N[C@@H]21)C(=O)N[C@@H](CCCCN)C(=O)N[C@@H](C)C(=O)N[C@@H](C)C(=O)N[C@@H](CC(C)C)C(=O)N[C@@H](CCCCN)C(=O)N[C@@H](CC(C)C)C(=O)N[C@@H](C)C(N)=O) [bKLAd11,12] | – | – | – | IC50 (HSV-1 KOS mutant hrR3 [1]; read-out: Entry Blocking Activity IC50): 23 µM; IC50 (hrR3; 4° C., read-out: Virucidal Activity 4° C. IC50): 300 µM; IC50 (hrR3; 37° C., read-out: Virucidal Activity 37° C. IC50): 61 µM
5 | CC(C)C[C@H](NC(=O)CCCCCNC(=O)CCCC[C@@H]1SC[C@@H]2NC(=O)N[C@@H]21)C(=O)N[C@@H](C)C(=O)N[C@@H](C)C(=O)N[C@@H](CC(C)C)C(=O)N1CCC[C@H]1C(=O)N[C@@H](CC(C)C)C(=O)N[C@H](C(=O)N[C@@H](CC(C)C)C(=O)N[C@@H](C)C(=O)N[C@@H](C)C(=O)N1CCC[C@H]1C(=O)N[C@@H](CC(C)C)C(=O)N[C@@H](C)C(=O)N[C@H](C(=O)N[C@@H](CC(C)C)C(=O)N[C@@H](C)C(=O)N1CCC[C@H]1C(=O)NCC(=O)N[C@@H](CCCNC(=N)N)C(=O)N[C@@H](CCCCN)C(=O)N[C@@H](CCCCN)C(=O)N[C@@H](CCCNC(=N)N)C(=O)N[C@@H](CCCNC(=N)N)C(=O)N[C@@H](CCC(N)=O)C(=O)N[C@@H](CCCNC(=N)N)C(=O)N[C@@H](CCCNC(=N)N)C(=O)N[C@@H](CCCNC(=N)N)C(=O)N[C@@H](CS)C(N)=O)C(C)C)C(C)C [b17TAT-C] ({Biotin-Ahx}-LAALPLVLAAPLAVLAPGRKKRRQRRRC-NH2) | 5.4 | 9.4 | ~200 | –
6 | CC(C)C[C@H](NC(=O)[C@H](C)NC(=O)[C@H](CC(C)C)NC(=O)[C@H](CC(C)C)NC(=O)[C@@H](NC(=O)[C@H](C)NC(=O)[C@@H]1CCCN1C(=O)[C@H](CC(C)C)NC(=O)[C@H](CC(C)C)NC(=O)[C@H](C)NC(=O)[C@@H](NC(=O)[C@H](C)NC(=O)[C@H](C)NC(=O)[C@H](CCCCN)NC(=O)[C@H](CCCCN)NC(=O)[C@H](CCCNC(=N)N)NC(=O)[C@H](CCCNC(=N)N)NC(=O)CCCCCNC(=O)CCCC[C@@H]1SC[C@@H]2NC(=O)N[C@@H]21)C(C)C)C(C)C)C(=O)N[C@@H](CC(C)C)C(=O)N[C@@H](C)C(=O)N1CCC[C@H]1C(=O)O [bEB] ({Biotin-Ahx}-RRKKAAVALLPAVLLALLAP-OH) | – | – | 100 | –
7 | N=C(N)NCCC[C@H](NC(=O)CNC(=O)CCCCCNC(=O)CCCC[C@@H]1SC[C@@H]2NC(=O)N[C@@H]21)C(=O)N[C@@H](CCCCN)C(=O)N[C@@H](CCCCN)C(=O)N[C@@H](CCCNC(=N)N)C(=O)N[C@@H](CCCNC(=N)N)C(=O)N[C@@H](CCC(N)=O)C(=O)N[C@@H](CCCNC(=N)N)C(=O)N[C@@H](CCCNC(=N)N)C(=O)N[C@@H](CCCNC(=N)N)C(=O)N[C@@H](CS)C(N)=O [bTAT-C, b-GRKKRRQRRRC-amide] | 5.8 | 27 | – | IC50 (HSV-1 KOS mutant hrR3 [3]): 175 µM
8 | CC(C)C[C@H](NC(=O)[C@@H](NC(=O)[C@H](C)NC(=O)[C@H](CC(C)C)NC(=O)[C@@H]1CCCN1C(=O)[C@H](C)NC(=O)[C@H](C)NC(=O)[C@H](CC(C)C)NC(=O)[C@@H](NC(=O)[C@H](CC(C)C)NC(=O)[C@@H]1CCCN1C(=O)[C@H](CC(C)C)NC(=O)[C@H](C)NC(=O)[C@H](C)NC(=O)[C@H](CC(C)C)NC(=O)[C@@H]1CCCN1C(=O)[C@H](CCCNC(=N)N)NC(=O)[C@H](CCCNC(=N)N)NC(=O)[C@H](CCCNC(=N)N)NC(=O)[C@H](CCC(N)=O)NC(=O)[C@H](CCCNC(=N)N)NC(=O)[C@H](CCCNC(=N)N)NC(=O)[C@H](CCCCN)NC(=O)[C@H](CCCCN)NC(=O)[C@H](CCCNC(=N)N)NC(=O)CN)C(C)C)C(C)C)C(=O)N[C@@H](C)C(=O)O [TAT-17] (H-GRKKRRQRRRPLAALPLVLAAPLAVLA-OH) | 2.4 | 8.3 | ~200 | –
